For 37 compounds, Ratio and IC50 results are on record in patent US20110105436A1, “HETEROARYL COMPOUNDS, COMPOSITIONS, AND METHODS OF USE IN CANCER TREATMENT” (AUCKLAND UNISERVICES LIMITED, priority 2008, published 2011).

One experiment relates to RCC4/VHL cells. As to the kind of experiment: XTT assay, RCC4/VHL versus RCC4 cells (selectivity ratio). It is filed as cell-based. As to conditions: selectivity ratio, IC50 in RCC4/VHL cells/IC50 in RCC4 cells. As for the experimental part: (§1) Cell Viability and XTT assays. For cell viability, 100,000 cells were plated in a 12-well plate. The following day, 1.25 μM STF-62247 was added in the presence or absence of 1 mM 3-MA for 24 hours at 37° C. Cells were trypsinized and counted by trypan blue exclusion. For XTT assays, 5000 RCC4 with and without VHL cells or 2,500 SN12C with and without VHL shRNA cells were plated in 96-well plates. The following day, vehicle (DMSO), STF-62247 or each of 19 analogs were added to media by serial dilution. Four days later, the media was aspirated and XTT solution containing 0.3 mg/ml of XTT (Sigma Chemical Co) in Phenol Red-free media, 20% FCS and 2.65 mg/ml N-methyl dibenzopyrazine methyl sulfate (PMS) was added to the cells and incubated at 37° C. for 1-2 hours. Metabolism of XTT was quantified by measuring the absorbance at 450 nm on a plate reader.
A. RCC4 and RCC4/VHL were treated with 1.25 μM of each 19 analogs for 20 hours and the presence of vacuoles was examined under light microscopy. B. Western blot for LC3 after treatment with each compound. Tubulin was used as loading control. Ratio is the relative from the IC50 in RCC4/VHL cells/IC50 in RCC4 cells. C. Acidic vesicle organelles (AVO) measured by FACS analysis in cells treated with 1.25 μM of STF-62247 or with compounds 21, 15, 25, 47, and 53 and stained with acridine orange.
On the technique in general: Tetrazolium dyes change colour on reduction, which living cells bring about.

The test system of a further experiment is RCC4 cells. As to the kind of experiment: XTT assay in VHL-deficient RCC4 cells. The settings on record: Homo sapiens, 96 h, XTT assay, VHL-deficient RCC4 cells, four days. The format is cell-based. How it is done: as §1

As to `Cc1cccc(Nc2nc(-c3ccnc(Br)c3)cs2)c1` [Compound 154, 4-(2-Bromo-4-pyridinyl)-N-(3-methylphenyl)-1,3-thiazol-2-amine], the Ratio with RCC4/VHL cells (Table 2) is >10. Also, it took 3.9 µM to reach half-maximal inhibition in the experiment with RCC4 cells (Table 2) (IC50).

For the compound `Cc1cccc(Nc2nc(-c3ccncc3C)cs2)c1` [Compound 166, N-(3-Methylphenyl)-4-(3-methyl-4-pyridinyl)-1,3-thiazol-2-amine], the Ratio in the experiment with RCC4/VHL cells (Table 2) is >7.7. Moreover, the IC50 in the experiment with RCC4 cells (Table 2) worked out at 5.2 µM.

For the compound `COc1cc(-c2csc(Nc3cccc(C)c3)n2)ccn1` [Compound 141, N-{4-[2-(Methyloxy)-4-pyridinyl]-1,3-thiazol-2-yl}-N-(3-methylphenyl)amine], the Ratio with RCC4/VHL cells (Table 2) was determined as 1.2. For the same compound, the IC50 in the experiment with RCC4 cells (Table 2) is 28.7 µM.

As for `Cc1cccc(Nc2nc(-c3ccncc3)c(CN(C)C)s2)c1` [Compound 83, 5-[(Dimethylamino)methyl]-N-(3-methylphenyl)-4-(4-pyridinyl)-1,3-thiazol-2-amine], the Ratio in the experiment on RCC4/VHL cells (Table 1) came out at 2.3. The IC50 with RCC4 cells (Table 1) was found to be 16 µM.

On to `CN(C)CCc1ccc(Nc2nc(-c3ccncc3)cs2)cc1` [Compound 36, N-{4-[2-(Dimethylamino)ethyl]phenyl}-4-(4-pyridinyl)-1,3-thiazol-2-amine], for which, in the experiment with RCC4/VHL cells (Table 1), the Ratio is 1.2. The compound also gave an IC50 in the experiment on RCC4 cells (Table 1) of 50 µM.

Consider `C#Cc1cnccc1-c1csc(Nc2cccc(C)c2)n1` [Compound 184, 4-(3-Ethynyl-4-pyridinyl)-N-(3-methylphenyl)-1,3-thiazol-2-amine], for which the Ratio with RCC4/VHL cells (Table 2) is reported as 4.4. Further, the IC50 in the experiment with RCC4 cells (Table 2) stood at 1.35 µM.

Consider `O=P(O)(O)Oc1cccc(Nc2nc(-c3ccncc3)cs2)c1` [Compound 39, 3-{[4-(4-Pyridinyl)-1,3-thiazol-2-yl]amino}phenyl Dihydrogen Phosphate], for which the Ratio with RCC4/VHL cells (Table 1) stood at 1.1. Further, in the experiment on RCC4 cells (Table 1), half-maximal inhibition (IC50) required 29 µM.

As for `CCN(c1cccc(C)c1)c1nc(-c2ccncc2)cs1` [Compound 96, N-Ethyl-N-(3-methylphenyl)-4-(4-pyridinyl)-1,3-thiazol-2-amine], the Ratio with RCC4/VHL cells (Table 1) came to 0.6. Also, the IC50 with RCC4 cells (Table 1) came to 40 µM.

Turning to `FC(F)(F)c1ccc(Nc2nc(-c3ccncc3)cs2)cc1` [Compound 133, 4-(4-Pyridinyl)-N-[4-(trifluoromethyl)phenyl]-1,3-thiazol-2-amine], in the experiment on RCC4 cells (Table 1), the IC50 was > 40 µM.

For `Cc1cccc(Nc2nc(-c3ccncc3F)cs2)c1` [Compound 170, 4-(3-Fluoro-4-pyridinyl)-N-(3-methylphenyl)-1,3-thiazol-2-amine], the Ratio in the experiment on RCC4/VHL cells (Table 2) was >20. Further, the midpoint of inhibition in the experiment with RCC4 cells (Table 2), the IC50, lay at 2 µM.

Turning to `Cc1cccc(Nc2nc(-c3ccncc3CCCO)cs2)c1` [Compound 187, 3-(4-{2-[(3-Methylphenyl)amino]-1,3-thiazol-4-yl}-3-pyridinyl)-1-propanol], the Ratio with RCC4/VHL cells (Table 2) was >5.9. The IC50 with RCC4 cells (Table 2) turned out to be 6.8 µM.

For `Clc1ccc(Nc2nc(-c3ccncc3)cs2)cc1Cl` [Compound 61, N-(3,4-Dichlorophenyl)-4-(4-pyridinyl)-1,3-thiazol-2-amine], the Ratio with RCC4/VHL cells (Table 1) is listed as >3. The compound also yielded an IC50 with RCC4 cells (Table 1) of 13.5 µM.

As for `CC(=O)c1ccc(Nc2nc(-c3ccncc3)cs2)cc1` [Compound 131, 1-(4-{[4-(4-Pyridinyl)-1,3-thiazol-2-yl]amino}phenyl)ethanone], the Ratio in the experiment with RCC4/VHL cells (Table 1) is listed as 3.1. The same compound came in with an IC50 with RCC4 cells (Table 1) of 3.8 µM.

Consider `Cc1cccc(Nc2nc(-c3ccncc3C#CCO)cs2)c1` [Compound 186, 3-(4-{2-[(3-Methylphenyl)amino]-1,3-thiazol-4-yl}-3-pyridinyl)-2-propyn-1-ol], for which, in the experiment with RCC4/VHL cells (Table 2), the Ratio is on record as 11.9. In the experiment on RCC4 cells (Table 2), this compound showed an IC50 of 0.24 µM.

For `Cc1cccc(Nc2nc(-c3ccncc3)c(CCCO)s2)c1` [Compound 81, 3-[2-[(3-Methylphenyl)amino]-4-(4-pyridinyl)-1,3-thiazol-5-yl]-1-propanol], the Ratio in the experiment on RCC4/VHL cells (Table 1) amounted to 3.7. The same compound gave an IC50 in the experiment on RCC4 cells (Table 1) of 3.6 µM.

Regarding `Cc1cccc(Nc2nc(-c3cc(-c4ccccc4)nc4ccccc34)cs2)c1` [Compound 194, N-(3-Methylphenyl)-4-(2-phenyl-4-quinolinyl)-1,3-thiazol-2-amine], the Ratio in the experiment with RCC4/VHL cells (Table 2) is reported as >1.6. In the experiment with RCC4 cells (Table 2), the IC50 was determined as 25.4 µM.

Turning to `Cc1cccc(Nc2nc(-c3ccncc3[N+](=O)[O-])cs2)c1` [Compound 181], the Ratio with RCC4/VHL cells (Table 2) amounted to 4.1. The compound further yielded an IC50 in the experiment with RCC4 cells (Table 2) of 8.2 µM.

With `Cc1ccc(Nc2nc(-c3ccncc3)cs2)cc1O` [Compound 49, 2-Methyl-5-{[4-(4-pyridinyl)-1,3-thiazol-2-yl]amino}phenol], in the experiment on RCC4/VHL cells (Table 1), the Ratio turned out to be 4.6. Besides, half-maximal inhibition with RCC4 cells (Table 1) (IC50) required 12 µM.

Turning to `Cc1ccc(Nc2nc(-c3ccncc3)cs2)cc1C` [Compound 43, N-(3,4-Dimethylphenyl)-4-(4-pyridinyl)-1,3-thiazol-2-amine], the Ratio in the experiment with RCC4/VHL cells (Table 1) came to 6.4. In addition, in the experiment on RCC4 cells (Table 1), the IC50 came to 6.5 µM.

As for `Cc1cccc(Nc2nc(-c3ccncc3Cl)cs2)c1` [Compound 174, 4-(3-Chloro-4-pyridinyl)-N-(3-methylphenyl)-1,3-thiazol-2-amine], in the experiment on RCC4/VHL cells (Table 2), the Ratio was >13.8. This compound also had an IC50 in the experiment with RCC4 cells (Table 2) of 2.9 µM.

Turning to `Cc1cccc(Nc2nc(-c3ccnc(CCCO)c3)cs2)c1` [Compound 162, 3-(4-{2-[(3-Methylphenyl)amino]-1,3-thiazol-4-yl}-2-pyridinyl)-1-propanol], in the experiment with RCC4/VHL cells (Table 2), the Ratio is listed as >7.7. In the experiment on RCC4 cells (Table 2), the midpoint of inhibition, the IC50, lay at 5.2 µM.

In the case of `c1ccc(Nc2nc(-c3ccncc3)cs2)cc1` [Compound 3, N-Phenyl-4-(4-pyridinyl)-1,3-thiazol-2-amine], the Ratio with RCC4/VHL cells (Table 1) was >10. This compound showed an IC50 with RCC4 cells (Table 1) of 7 µM.

On to `Cc1cccc(Nc2nc(-c3ccncc3)c(C(=O)N(C)C)s2)c1` [Compound 92, N,N-Dimethyl-2-[(3-methylphenyl)amino]-4-(4-pyridinyl)-1,3-thiazole-5-carboxamide], for which the Ratio with RCC4/VHL cells (Table 1) is listed as >2.5. For the same compound, in the experiment with RCC4 cells (Table 1), the IC50 was determined as 16 µM.

With `Clc1cccc(Nc2nc(-c3ccncc3)cs2)c1` [Compound 17, N-(3-Chlorophenyl)-4-(4-pyridinyl)-1,3-thiazol-2-amine], the Ratio with RCC4/VHL cells (Table 1) is listed as 5. Besides, in the experiment with RCC4 cells (Table 1), the midpoint of inhibition, the IC50, lay at 3 µM.

Turning to `CCN(CC)Cc1sc(Nc2cccc(C)c2)nc1-c1ccncc1` [Compound 84, 5-[(Diethylamino)methyl]-N-(3-methylphenyl)-4-(4-pyridinyl)-1,3-thiazol-2-amine], the Ratio in the experiment on RCC4/VHL cells (Table 1) turned out to be 1.4. Further, the IC50 in the experiment with RCC4 cells (Table 1) is 13 µM.

Take `Clc1ccc(Nc2nc(-c3ccncc3)cs2)cc1` [Compound 31, N-(4-Chlorophenyl)-4-(4-pyridinyl)-1,3-thiazol-2-amine]: in the experiment on RCC4/VHL cells (Table 1), the Ratio is >2. In the experiment with RCC4 cells (Table 1), this compound had an IC50 of 38 µM.

For `Cc1cccc(Nc2nc(-c3ccccn3)cs2)c1` [Compound 68, N-(3-Methylphenyl)-4-(2-pyridinyl)-1,3-thiazol-2-amine], the Ratio in the experiment with RCC4/VHL cells (Table 1) turned out to be 0.9. This compound returned an IC50 with RCC4 cells (Table 1) of 37 µM.

In the case of `COc1ccccc1Nc1nc(-c2ccncc2)cs1` [Compound 109, N-(2-Methoxyphenyl)-4-(4-pyridinyl)-1,3-thiazol-2-amine], the Ratio with RCC4/VHL cells (Table 1) is >1.2. Also, in the experiment on RCC4 cells (Table 1), the IC50 was found to be 33.4 µM.

For `Fc1ccccc1Nc1nc(-c2ccncc2)cs1` [Compound 113, N-(2-Fluorophenyl)-4-(4-pyridinyl)-1,3-thiazol-2-amine], the Ratio in the experiment with RCC4/VHL cells (Table 1) is on record as >2.8. This compound also gave an IC50 with RCC4 cells (Table 1) of 14.3 µM.

With `CCc1cnccc1-c1csc(Nc2cccc(C)c2)n1` [Compound 185, 4-(3-Ethyl-4-pyridinyl)-N-(3-methylphenyl)-1,3-thiazol-2-amine], the Ratio with RCC4/VHL cells (Table 2) was 2.8. This compound also gave an IC50 with RCC4 cells (Table 2) of 6.2 µM.

For the compound `Oc1ccc(Nc2nc(-c3ccccn3)cs2)cc1` [Compound 69, 4-{[4-(2-Pyridinyl)-1,3-thiazol-2-yl]amino}phenol], the Ratio in the experiment with RCC4/VHL cells (Table 1) came to 0.7. Besides, in the experiment with RCC4 cells (Table 1), the IC50 was 36 µM.

Take `Cc1cccc(Nc2nc(-c3ccnc(F)c3)cs2)c1` [Compound 149, 4-(2-Fluoro-4-pyridinyl)-N-(3-methylphenyl)-1,3-thiazol-2-amine]: the Ratio in the experiment on RCC4/VHL cells (Table 2) is reported as >8.9. In the experiment on RCC4 cells (Table 2), half-maximal inhibition (IC50) required 4.5 µM.

Consider `Cc1cc(C)cc(Nc2nc(-c3ccncc3)cs2)c1` [Compound 45, N-(3,5-Dimethylphenyl)-4-(4-pyridinyl)-1,3-thiazol-2-amine], for which the Ratio in the experiment with RCC4/VHL cells (Table 1) is >9. Further, the IC50 with RCC4 cells (Table 1) worked out at 4.5 µM.

Regarding `Cc1cccc(Nc2nc(-c3ccnc(Cl)c3)cs2)c1` [Compound 150, 4-(2-Chloro-4-pyridinyl)-N-(3-methylphenyl)-1,3-thiazol-2-amine], in the experiment with RCC4/VHL cells (Table 2), the Ratio was 3.8. The compound further showed an IC50 in the experiment on RCC4 cells (Table 2) of 2.2 µM.

In the case of `Cc1cccc(N(C)c2nc(-c3ccncc3)cs2)c1` [Compound 95, N-Methyl-N-(3-methylphenyl)-4-(4-pyridinyl)-1,3-thiazol-2-amine], in the experiment with RCC4/VHL cells (Table 1), the Ratio was found to be 0.6. Besides, in the experiment with RCC4 cells (Table 1), the concentration for half-maximal inhibition (IC50) was 28 µM.

For the compound `Cc1cccc(Nc2nc(-c3cccnc3)cs2)c1` [Compound 65, N-(3-Methylphenyl)-4-(3-pyridinyl)-1,3-thiazol-2-amine], in the experiment on RCC4 cells (Table 1), the IC50 is > 40 µM.

For the compound `Oc1ccc(Nc2nc(-c3cccnc3)cs2)cc1` [Compound 66, 4-{[4-(3-Pyridinyl)-1,3-thiazol-2-yl]amino}phenol], the IC50 in the experiment on RCC4 cells (Table 1) was > 40 µM.

What is called IC50 is the concentration needed to halve the response being measured. A high value points to lower potency.
